Converted amounts (≈) assume the structure as drawn.
These compounds were tested on Vesicular stomatitis virus (assay: Antiviral activity against VSV in BHK cells).
Format: functional, organism-based

Q: For Nc1ncnc2c1ncn2[C@@H]1O[C@H](/C=C/I)[C@@H](O)[C@H]1O, which IC50 is on record?
A: 2 µg/mL (≈ 5.14 µM)

What follows are compounds tested on Trypanosoma brucei (assay: Antitrypanosomal activity against Trypanosoma brucei).
Format: functional, organism-based

Q: With Nc1ncnc2c1ncn2[C@@H]1O[C@H](CSCCO)[C@@H](O)[C@H]1O as the compound, how does the IC50 read?
A: 0.16 µg/mL (≈ 0.489 µM)

Q: Nc1ncnc2c1ncn2[C@@H]1O[C@H](/C=C/I)[C@@H](O)[C@H]1O was tested. Which IC50 did it give?
A: 9 µg/mL (≈ 23.1 µM)

Q: How did the IC50 turn out when O[C@@H]1[C@H](O)[C@@H](/C=C/I)O[C@H]1n1cnc2c(NC3CC3)ncnc21 was run?
A: 12 µg/mL (≈ 28 µM)

Q: With CC(=O)OCCSC[C@H]1O[C@@H](n2cnc3c(N)ncnc32)[C@H](OC(C)=O)[C@@H]1OC(C)=O as the compound, how does the IC50 read?
A: 0.12 µg/mL (≈ 0.265 µM)

Q: How did the IC50 turn out when Nc1ncnc2c1ncn2[C@@H]1O[C@H](/C=C\I)[C@@H](O)[C@H]1O was run?
A: 45 µg/mL (≈ 116 µM)

Q: With CN(C/C=C\CN)C[C@H]1O[C@@H](n2cnc3c(N)ncnc32)[C@H](O)[C@@H]1O as the compound, how does the IC50 read?
A: 0.02 µg/mL (≈ 0.0572 µM)

Q: With O[C@@H]1[C@H](O)[C@@H](/C=C/F)O[C@H]1n1cnc2c(NC3CC3)ncnc21 as the compound, how does the IC50 read?
A: 19 µg/mL (≈ 59.1 µM)

Q: Nc1ncnc2c1ncn2[C@@H]1O[C@](S)(CO)[C@@H](O)[C@H]1O was tested. Which IC50 did it give?
A: 14 µg/mL (≈ 46.8 µM)

Q: With N#C/N=C/[C@H]1O[C@@H](n2cnc3c(NC4CC4)ncnc32)[C@H](O)[C@@H]1O as the compound, how does the IC50 read?
A: 19 µg/mL (≈ 57.7 µM)

— ChEMBL document CHEMBL1138196, “Antitrypanosomal activity of 5'-deoxy-5'-(iodomethylene)adenosine and related 6-N-cyclopropyladenosine analogues” (J Med Chem, 2006)
